These results are taken from patent US20010011096A1, “Polycyclic thiazol-2-ylidene amines, processes for their preparation and their use as medicaments” (priority 1999, published 2001).

Values joined by “and” are separate entries in the source; they are usually repeats but may differ in a detail not shown here. Equal entries are not always repeated.

One data set concerns male NMR^1 mice. Briefly: Anorectic effect: consumption of condensed milk by fasted mice after administration by gavage. Type of data set: in vivo. On the procedure: The anorectic effect was tested on male NMR^1 mice. After withdrawal of feed for 24 hours, the test product was administered by gavage. The animals were housed singly and had free access to drinking water and, 30 minutes after administration of the product, they were offered condensed milk. The consumption of condensed milk was determined, and the general behavior of the animals was inspected, every half hour for 7 hours. The measured milk consumption was compared with that of untreated control animals.

By melting point is commonly meant the temperature, or range, at which the solid turns liquid. Turning to `Br.CN=c1sc2c(n1C)-c1cccc(-c3ccc(C(F)(F)F)cc3)c1C2`, the melting point was 231 °C and 230 to 233 °C.
Same read-out and setting: the figure for `Br.CN1C(=CN)SC2=C1c1ccc(Cl)cc1C2` is 278 °C.
Still for that read-out and setting: the result for `Cl.Cn1c2c(sc1=NCC(=O)O)COc1ccc(F)cc1-2` reads 256 °C; that for `CN1C(=CN)SC2=C1c1ccc(Oc3ccc(Cl)cc3)cc1C2.Cl` [Example 15, [6-(4-Chlorophenoxy)-3-methyl-3,8-dihydroindeno[1,2-d]thiazol-2-ylidene]methylamine hydrochloride], 250 to 252 °C and 251 °C.
As to `Br.c1ccc(Oc2ccc3c(c2)CC2=C3N3CCN=C3S2)cc1` [Example 24, 7-Phenoxy-4H,9H-2,3-dihydroimidazo[2,1-b]indeno[1,2-d]thiazole hydrobromide], the “Reduction in the cumulative milk consumption as % of the controls” value in the data set on male NMR^1 mice (oral dose 50 mg/kg by gavage, compared with untreated control animals, 7 hours) was determined as 93%. In the data set on male NMR^1 mice (oral dose 50 mg/kg by gavage, feed withdrawn 24 hours, milk offered 30 minutes after administration, determined for 7 hours, 5 animals), the “cumulative milk consumption by the treated animals” value is reported as 5/0.30 ml. For the same molecule, the “Remarks (general behavior / side effects of the animals)” value with male NMR^1 mice (oral dose 50 mg/kg, behavior inspected every half hour for 7 hours) is on record as “none”.
